Target: T1, Cholecystokinin receptor type A (Rattus norvegicus, UniProt P30551)
T1 sequence (P30551 whole entry): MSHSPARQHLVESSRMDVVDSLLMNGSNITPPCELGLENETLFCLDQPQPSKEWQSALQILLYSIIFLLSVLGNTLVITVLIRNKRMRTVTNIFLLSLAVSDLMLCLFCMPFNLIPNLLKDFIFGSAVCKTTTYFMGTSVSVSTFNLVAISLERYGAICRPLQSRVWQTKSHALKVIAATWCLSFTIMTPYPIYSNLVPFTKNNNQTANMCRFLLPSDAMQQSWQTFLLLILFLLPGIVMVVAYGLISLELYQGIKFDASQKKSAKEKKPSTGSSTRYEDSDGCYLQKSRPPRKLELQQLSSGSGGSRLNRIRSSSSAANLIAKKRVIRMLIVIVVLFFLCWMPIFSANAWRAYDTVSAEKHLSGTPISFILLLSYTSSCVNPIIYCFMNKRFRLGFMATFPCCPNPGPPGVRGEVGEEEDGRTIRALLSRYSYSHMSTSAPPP
Assay: Inhibitory activity against Cholecystokinin type A receptor in rat pancreas using [125 I ]- CCK-8 as radioligand.

**Q.** For `Cc1cccc(NC(=O)N[C@@H]2C[C@H](N3CCCCCC3)c3ccccc3N(C)C2=O)c1`, which IC50 is on record?
**A.** The IC50 was 121 nM.

**Q.** `Cc1cccc(NC(=O)N[C@@H]2C[C@@H](N3CCCCCC3)c3ccccc3N(C)C2=O)c1` was tested. Which IC50 did it give?
**A.** Its IC50 is 646 nM.

From ChEMBL document CHEMBL1128760, “CCKB selective receptor ligands: novel 1,3,5-trisubstituted benzazepin-2-ones” (Bioorg Med Chem Lett, 1995)
